Data set [1] deals with in vitro AS BBB model (hCMEC/D3 co-cultured with U87MG). Put plainly: Permeability test in the optimized annular shaking dish (AS) BBB model. The settings on record: optimized AS BBB model. As for the experimental part:
(§1) The culture inserts (Costar®, Washington, DC, USA, 6.5 mm diameter) of polycarbonate (PC) and polyester (PET) membrane were procured from Corning Inc. (Corning, NY, USA). […] After washing twice with PBS, the cells were seeded at a density of 1 × 10^5 hCMEC/D3 cells/well in the apical chamber and 3 × 10^4 U87MG cells/well on the basolateral side of the insert. The cultivation method was modified from that described in the literature. Briefly, the insert was inverted, and U87MG cells were initially seeded. The insert was flipped 3–4 h after seeding the U87MG cells. Subsequently, hCMEC/D3 cells were seeded 1 day later.
(§2) To prevent nonspecific binding, all compounds were pre-incubated for 30 min prior to the permeability study. The samples were collected at 0 min from the donor and at 30, 60, and 90 min from the acceptor and immediately replaced with a new transport buffer. Incubation was carried out in a humidified 5% CO2 environment at 37 °C with shaking at 100 rpm.
(§3) After culturing the cells in culture inserts, as described in Section 2.3, they were transferred to the AS prepared on day 3, and cultivation was carried out with orbital shaking at 150 rpm until day 17 (Figure 1b). The cultivated AS BBB model was employed to investigate the effects of the AS size, as well as the influence of FBS and ITS.
(§4) Chromatographic separations were performed on Agilent Poroshell 120 EC-C18 (3.0 × 50 mm, 2.7 µm; Agilent Technologies, Inc., Santa Clara, CA, USA) and YMC triart C18 (2.0 × 50 mm, 3 µm; YMC Co., Ltd., Kyoto, Japan) columns using 5 mM ammonium formate in water (pH 4) and methanol.
(§5) The optimized AS BBB model was evaluated as follows.

Experiment in data set [2]: as above
The settings on record: human. As for the experimental part:
as §1, §2, §3, §4, §5

The conditions of data set [3]: monkey; unbound plasma-CSF partition coefficient; cited from earlier work.
For data set [4] the following is noted: rat; unbound plasma-CSF partition coefficient; cited from earlier work.
The subject of a further data set is P-glycoprotein (P-gp). Briefly: Rhodamine 123 efflux (bidirectional permeability, P-gp activity). The settings on record: for efflux ratio: 10 μM; for efflux ratio at 90 min, 10 μM: human, not told.
Another data set deals with P-gp. Briefly: Efflux transporter inhibition assay, P-gp, AS BBB model. The data set is classed as in vitro ADME. The settings on record: human, optimized AS BBB model. The method, then:
A modified method from a previously published paper was used for the inhibition assay. […] The bidirectional permeability of substrates was evaluated by measuring changes in Papp and the efflux ratio for both the inhibitor- and vehicle-treated groups. The concentration of dantrolene was determined using liquid chromatography with tandem mass spectrometry (LC-MS/MS).

Data set [5] has as its system hCMEC/D3 cell layer on transwell inserts. Put plainly: Lucifer yellow (LY) diffusion, cell layer integrity. Conditions: AS BBB model (discussion).

Where a name gives a salt, the structure may show the parent alone. Read-outs that look alike come from different tables or passages of the source.

Method for P-glycoprotein (P-gp): Bidirectional permeability tests were performed at time points of 0, 30, 60, and 90 min with shaking at 100 rpm. Each sample was measured at 480 nm/530 nm (excitation/emission wavelengths) using the VICTOR® Nivo multimode plate reader. The apparent permeability coefficient (Papp) was determined using Equation (2):Papp (cm/s) = dQ/dt × 1/(A × C0)(2) where: • A is the surface area of the insert filter membrane (cm^2) • C0 is the initial concentration in the donor solution (μM) • dQ/dt is the amount of the drug transported within a given time period (pmol/s)

On to `NC(=O)N1c2ccccc2C=Cc2ccccc21` [Carbamazepine, carbamazepine], for which the “permeability (in words)” value in data set [1] was “high permeability”. The same molecule displayed an apparent permeability coefficient (Papp) at 90 min, 20 μM in data set [2] of 29 ± 4.4 ×10⁻⁶ cm/s. The “Kp,uu,CSF” value in data set [3] is 0.979 (monkey) ^3.

As to `Cc1ncc2n1-c1ccc(Cl)cc1C(c1ccccc1F)=NC2` [Midazolam], the “Kp,uu,CSF” value in data set [4] is on record as 1.35 (rat) ^2. In data set [2], this molecule showed a Papp of 41.5 ± 2.8 ×10⁻⁶ cm/s.

In data set [2], `O=C1NC(=O)C(c2ccccc2)(c2ccccc2)N1` [Phenytoin, phenytoin sodium] gave a Papp at 90 min, 20 μM of 21.8 ± 1.2 ×10⁻⁶ cm/s.

`CC(C)NCC(O)COc1cccc2ccccc12` (stereo not shown) [Propranolol, propranolol HCl]: in data set [2], the Papp at 90 min, 20 μM worked out at 24.6 ± 4.5 ×10⁻⁶ cm/s.

As for `COC(=O)c1ccccc1-c1c2ccc(=N)cc-2oc2cc(N)ccc12` [Rhodamine123, rhodamine 123], the “permeability (in words)” value in data set [1] is listed as “low”. For the same molecule, in data set [2], the Papp at 90 min, 20 μM was found to be 0.67 ± 0.14 ×10⁻⁶ cm/s. Moreover, the efflux ratio entry is recorded as “exceeding two” with P-glycoprotein (P-gp) (15 cm AS group) and 4.04 ± 0.04 with P-glycoprotein (P-gp) (15 cm AS, 5% FBS + ITS). Further, the efflux ratio at 90 min, 10 μM in the data set with P-glycoprotein (P-gp) (15 cm AS, 2% FBS + ITS) stood at 6.73 ± 0.94; with P-glycoprotein (P-gp) (15 cm AS, 5% FBS), 2.4 ± 0.05; with P-glycoprotein (P-gp) (15 cm AS, 5% FBS + ITS), 4 ± 0.04. For the same molecule, the efflux ratio at 10 μM in the data set on P-gp (with cyclosporin A 10 μM, with P-gp inhibitor cyclosporin A 10 μM) worked out at 1.6 ± 0.13; in the data set with P-gp (without inhibitor, 10 μM), 4.2 ± 0.15.

`CCN1CCCC1CNC(=O)c1cc(S(N)(=O)=O)ccc1OC` (stereo not shown) [Sulpiride, sulpiride]: the “Kp,uu,CSF” value in data set [4] is reported as 0.049 (rat) ^2. The apparent permeability coefficient (Papp) at 90 min, 20 μM in data set [2] amounted to 10.2 ± 0.82 ×10⁻⁶ cm/s.

Take lucifer yellow CH dipotassium salt [LY]: the “transport of LY through the paracellular pathway” value in data set [5] is reported as “less than 1%”.

For orientation: Papp means the rate of passage across a membrane or cell layer, normalised by area and donor concentration. For orientation: efflux ratio means the permeability from basolateral to apical divided by that in the opposite direction, in the common usage.

The record behind these values is publication PMC10820479, “An Improved In Vitro Blood-Brain Barrier Model for the Evaluation of Drug Permeability Using Transwell with Shear Stress” (Pharmaceutics, 2023).
